Laboratory results as given in publication PMC10754118, “Lipophilic Nucleoside Triphosphate Prodrugs of Anti‐HIV Active Nucleoside Analogs as Potential Antiviral Compounds” (Advanced Science, 2023).
Where two headings read alike, the source gives them in different places.

Legend:
[1] = test system: HIV‐2 [ROD)]; experiment: Anti-HIV activity, HIV-2 in thymidine kinase-deficient CEM/TK^− cells; assay type: cell-based
Procedure: (§1) Part 9. Anti-HIV activity assay.
(§2) The produce was used as previously reported. 5 Inhibition of HIV-1(IIIB)- and HIV-2(ROD)-induced cytopathogenicity in wild-type CEM/0 and thymidine kinase-deficient CEM/TK– cell cultures was measured in […]
(§3) containing appropriate dilutions of the test compounds. After 4−5 days of incubation at 37 °C in a CO2-controlled humidified atmosphere, CEM giant (syncytium) cell formation was examined microscopically. The […]
(§4) giant cell formation by 50%.
(§5) Part 10. Primer-extension assays. […]

[2] = in vitro; settings: human, CEM/0 cells (wild-type CD4+ T-cells)
Procedure: All TriPPPro‐compounds 10 and 20, as well as their parent nucleosides and the corresponding NTPs, were evaluated for their antiviral activity (expressed as EC50 values) against HIV‐1 (wild‐type CEM/0 cells) and HIV‐2 (wild‐type CEM/0 cells and thymidine kinase‐deficient (CEM/TK^−) cells) with concomitant determination of cytotoxicity in the same cell line (Table 3 ).

[3] = test system: HIV‐1 [HE]; experiment: Anti-HIV activity, HIV-1 in wild-type CEM/0 cells; assay type: cell-based; settings: Human immunodeficiency virus 1, CCRF-CEM, read-out: Antiviral activity CEM/0 HIV‐1 [HE] EC50
[4] = test system: HIV‐2 [ROD]; experiment: Anti-HIV activity, HIV-2 in wild-type CEM/0 cells; assay type: cell-based; settings: Human immunodeficiency virus 2, CCRF-CEM, read-out: Antiviral activity CEM/0 HIV‐2 [ROD] EC50
Procedure: as §1, §2, §3, §4, §5

[5] = Chemical hydrolysis in phosphate buffer saline (PBS, pH 7.3); assay type: physicochemical; settings: PBS pH 7.3, 37 °C, read-out: PBS pH 7.3 t 1/2 (converted)
Procedure: Part 4. Chemical Hydrolysis of TriPPPro-compounds 10 and 20.
Second prepare 1.9 mM hydrolysis […]
Then, aliquots of 50 µL human

[6] = Human immunodeficiency virus 2, CEM-TK(-), thymidine kinase-deficient CEM/TK^− cells, mean ±SD n = 2–3; read-out: Antiviral activity CEM/TK^− HIV‐2 [ROD)] EC50
[7] = wild-type CEM/0 cells, mean ±SD n = 2–3
[8] = Human immunodeficiency virus 2, CEM-TK(-), read-out: Antiviral activity CEM/TK^− HIV‐2 [ROD)] EC50

Row | EC50 [1, 6] [µM] | EC50 [3, 7] [µM] | EC50 [4, 7] [µM] | half-life at 1.9 mM [5] [days] | Compound | CC50 [2] [µM] | EC50 [1, 8] [µM] | EC50 [3] [µM] | EC50 [4] [µM]
1 | > 100 | 0.0025 ± 0.0029 | 0.0043 ± 0.0017 |  | Cc1cn([C@H]2C[C@H](F)[C@@H](CO)O2)c(=O)[nH]c1=O [1f (FLT), FLT, reference compound] | > 100 |  |  | 
2 | 11.3 ± 4.24 | > 10 | 4.21 ± 0.37 | > 83.3 | CCCCCCCCCCCCCCCCCCOP(=O)(OCC(CC)CCCC)OP(=O)(O)OP(=O)(O)OC[C@H]1O[C@@H](n2cc(/C=C/Br)c(=O)[nH]c2=O)C[C@@H]1O (stereo partly drawn) [10gw] | 60.3 ± 20.7 |  |  | 
3 |  |  |  |  | Cc1cn([C@H]2C[C@H](N=[N+]=[N-])[C@@H](CO[P@](=O)(O)O[P@](=O)(O)OP(=O)(O)O)O2)c(=O)[nH]c1=O [AZTTP, reference compound] | > 100 | 57.9 ± 10.9 | 0.0069 ± 0.0087 | 0.0055 ± 0.004
4 | > 20 | 1.2 ± 0.05 | 2.2 ± 1.24 | > 83.3 | CCCCCCCCCCCCCCCCCCOP(=O)(OCC(CC)CCCC)OP(=O)(O)OP(=O)(O)OC[C@H]1O[C@@H](n2cc(Cl)c(=O)[nH]c2=O)C[C@@H]1F (stereo partly drawn) [10dw] | 56.1 ± 15.8 |  |  | 
5 | 0.16 ± 0.04 | 0.064 ± 0.08 | 0.039 ± 0.033 | 8.46 | CCCCCCCCCCCCCCCCCCP(=O)(OCc1ccc(OC(=O)CCCC)cc1)OP(=O)(O)OP(=O)(O)OC[C@H]1O[C@@H](n2ccc(=O)[nH]c2=O)C[C@@H]1F (stereo partly drawn) [10fz] | 42 ± 10.6 |  |  | 
6 | 1.58 ± 1.97 | 0.3 ± 0.3 | 0.78 ± 0.3 | > 16.7 | CCCCCCCCCCCCCCCCCCOP(=O)(OCc1ccc(OC(=O)CCCC)cc1)OP(=O)(O)OP(=O)(O)OC[C@H]1O[C@@H](n2cc(C)c(=O)[nH]c2=O)C[C@@H]1F (stereo partly drawn) [10ey] | 54.1 ± 15.8 |  |  | 
7 |  |  |  |  | Nc1nc(NC2CC2)c2ncn([C@H]3C=C[C@@H](CO)C3)c2n1 [1h (ABC), abacavir, reference compound] | > 100 |  |  | 
8 | 0.28 ± 0.12 | 1.5 ± 1.39 | 0.86 ± 0.19 | > 83.3 | CCCCCCCCCCCCCCCCCCOP(=O)(OCC(CC)CCCC)OP(=O)(O)OP(=O)(O)OC[C@H]1O[C@@H](n2cc(C)c(=O)[nH]c2=O)C[C@@H]1F (stereo partly drawn) [10ew] | 52.6 ± 10.9 |  |  | 
9 | 6.1 ± 3 | 0.16 ± 0.19 | 0.054 ± 0.028 | > 83.3 | CCCCCCCCCCCCCCCCCCOP(=O)(OCC(CC)CCCC)OP(=O)(O)OP(=O)(O)OC[C@H]1O[C@@H](n2cc(C)c(=O)[nH]c2=O)C[C@@H]1N=[N+]=[N-] (stereo partly drawn) [10bw] | 45.6 |  |  | 
10 | > 100 | 0.82 ± 0.33 | 1.95 ± 2.63 |  | O=c1[nH]c(=O)n([C@H]2C[C@H](F)[C@@H](CO)O2)cc1Cl [1d (FddClU), FddClU, reference compound] | > 100 |  |  | 
11 | 0.36 ± 0.24 | 0.026 ± 0.028 | 0.014 ± 0.016 | 15 | CCCCCCCCCCCCCCCCCCOP(=O)(OCc1ccc(OC(=O)CCCC)cc1)OP(=O)(O)OP(=O)(O)OC[C@H]1O[C@@H](n2ccc(=O)[nH]c2=O)C[C@@H]1F (stereo partly drawn) [10fy] | 43.3 ± 5.1 |  |  | 
12 | 0.12 ± 0.1 | 0.21 ± 0.06 | 0.18 ± 0.1 | > 83.3 | CCCCCCCCCCCCCCCCCCOP(=O)(OCC(CC)CCCC)OP(=O)(O)OP(=O)(O)OC[C@@H]1O[C@H](n2cc(F)c(N)nc2=O)CS1 (stereo partly drawn) [10cw] | 64 ± 23.6 |  |  | 

Row | Compound | EC50 [1, 6] [µM] | EC50 [3, 7] [µM] | EC50 [4, 7] [µM] | half-life at 1.9 mM [5] [days] | CC50 [2] [µM] | EC50 [1, 8] [µM] | EC50 [3] [µM] | EC50 [4] [µM]
13 | CCCCCCCCCCCCCCCCCCP(=O)(OCCCC)OP(=O)(O)OP(=O)(O)OC[C@H]1O[C@@H](n2cc(/C=C/Br)c(=O)[nH]c2=O)C[C@@H]1O (stereo partly drawn) [10gx] |  |  |  | > 41.7 | 51.5 ± 17 | 23.9 ± 2.72 | > 10 | > 10
14 | CCCCCCCCCCCCCCCCCCP(=O)(OCCCC)OP(=O)(O)OP(=O)(O)OC[C@H]1O[C@@H](n2cc(C)c(=O)[nH]c2=O)C[C@@H]1F (stereo partly drawn) [10ex] |  |  |  | 6.17 | 43.6 | 1.01 ± 1.14 | 0.39 ± 0.13 | 0.52 ± 0.67
